Data from patent publication US20220192985A1, “METHOD OF PRODUCTION OF A COMPOSITE OF YEAST-DERIVED BETA GLUCAN PARTICLE WITH INCORPORATED POORLY-WATER-SOLUBLE LOW-MOLECULAR-WEIGHT COMPOUND, PHARMACEUTICAL PREPARATION AND USE THEREOF” (VYSOKA SKOLA CHEMICKO-TECHNOLOGICKA V PRAZE, priority 2019, published 2022).

Experiments:
Assay type in all cases: physicochemical
[1] = Powder rheology shear test (FT4), Example 8; conditions: pre-sheared at 3 kPa; ATO/GP mass ratio 25%
Procedure: (§1) The moisture (water content) of the samples was firstly measure using a moisture analysis balance (simple test, 100° C., 5 mg initial mass, infrared drying). […] The samples were then dried for 24 hours in the oven with very-slowly-moving fan at 30° C. Finally, a shear test (FIG. 15) was performed on the samples a Powder Rheometer FT4 (pre-sheared at 3 kPa consolidation and initial mass of 0.6-0.7 g).

[2] = Powder rheology shear test (FT4), Comparative Example 9; conditions: pre-sheared at 3 kPa, mass ratio 10%
Procedure: Shear tests were performed on the samples a Powder Rheometer FT4 (pre-sheared at 3 kPa consolidation and initial mass of 0.6-0.7 g). The tests were carried out per duplicate under laboratory conditions (21.2±0.7° C. and 35.1±2.0% relative humidity).

[3] = Moisture (water content), moisture analysis balance; conditions: first measurement, 100° C. infrared drying
Procedure: as §1

[4] = Dissolution test of (IBU+ASA)/GP, crude IBU and crude ASA in 10 mM HCl (pH 2.0); conditions: 10 mM HCl pH 2.0, room temperature; compared with encapsulated drug
Procedure: Dissolution tests (FIG. 11) were performed for crude micronized ibuprofen, crude acetylsalicylic acid and for the produced (IBU+ASA)/GP composite particles, in powder form and using 10 mM HCl (pH 2.0) as dissolution medium. For that, 20.0 mg of crude drug (IBU or ASA) or 100.0 mg of (IBU+ASA)/GP composite, were added to 200 mL of continuously stirred dissolution medium (for a maximum concentration of 0.1 mg of drug per ml of medium). The mixtures were continuously stirred at 250 rpm and room temperature in a 250-mL beaker. At pre-defined time-points (ranging from 0 to 60 min), 500 μL of sample were collected, centrifuged and filtered (200-nm pore size filtration membrane), and the concentration was evaluated by high-performance liquid chromatography (HPLC) with UV detection (Agilent), coupled with C18 column (100 mm×4.6 mm, 5 μm) and mobile phase consisting of 0.01 M ammonium phosphate buffer (pH 2.0) and acetonitrile, in gradient according to the Table 2: […]

AIF (Angle of Internal Friction) [1] | Cohesion [1] | Cohesion ([2]; 21.2±0.7° C., 35.1±2.0% relative humidity) | AIF (Angle of Internal Friction) [2] | Category (flowability) [2] | FF (Flow Function) [2] | moisture (water content) [3] | dissolution rate [4] | Structure (SMILES)
45.3 ° | 0.879 kPa | 0.81 ± 0.21 kPa | 51.24 ± 0.82 ° | Cohesive | 2.43 ± 0.48 | 2.5 % wt. |  | CC(C)c1c(C(=O)Nc2ccccc2)c(-c2ccccc2)c(-c2ccc(F)cc2)n1CC[C@@H](O)C[C@@H](O)CC(=O)O [Crude ATO, atorvastatin]
 |  |  |  |  |  |  | slower dissolution rates | CC(=O)Oc1ccccc1C(=O)O [crude ASA, acetylsalicylic acid]
 |  |  |  |  |  |  | slower dissolution rates | CC(C)Cc1ccc(C(C)C(=O)O)cc1 (stereo not drawn) [crude IBU, ibuprofen]
